≈ marks a conversion by molar mass, not a printed value. Read-outs that look alike come from different tables or passages of the source. Values belong to the compound of their own block, whether it stands above or below them.
Assays:
[1] = system: Escherichia coli ATCC 25922; assay type: cell-based
Method in brief: (§1)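 Bacteria in mid-log phase, grown in 2% Bacto Peptone water, were tested by standard microdilution in 1% Bacto Peptone water at an inoculum of 2×10^6 CFU/ml. Runs were in triplicate, and peptide concentration in the wells was checked by HPLC.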

[2] = system: Staphylococcus aureus ATCC 25923; assay type: cell-based
Method in brief: as §1

human red blood cells = assay: Hemolytic assay; assay type: cell-based; conditions: red cells of human
[3] = system: Meth A cells (murine sarcoma cell line); assay: Cytotoxicity on Meth A cells, MTT method
Method in brief: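 Meth A cells in RPMI with 10% FBS exposed to peptides (final e.g. […]) for 4 h, then MTT added for 2 h; formazan dissolved in acid isopropanol and absorbance read at 590 nm. Medium alone and 1% Triton X-100 defined 0% and 100% killing.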

[4] = system: human promyelotic leukemia cell line HL 60; assay: Cytotoxicity on HL 60 cells, MTT; assay type: cell-based
Meth A tumors = assay: Tumor regression, murine Meth A fibrosarcoma; assay type: in vivo, mice; conditions: for regression of Meth A tumors: injected intratumorally, treatment on day 7 and 10
Description: Specific pathogen-free CB6F1 (Balb/c×C57 BL/6) female mice of about 8 weeks of age were obtained from Charles River (Germany). The mice were kept on standard laboratory chow and water. Tumor bearing mice were serologically screened for viral (LDH, CMV) and mycoplasmic infection and in all cases tested negative.
After a single inoculation of 5×10^7 viable Meth A cells, different LF peptides were injected intratumorally (LFB-14-31, LFB 17-31 Pmc, 500 μg in a 50 μl dose; LFB 17-31, 1000 μg in a 50 μl dose), on day 7 and day 10. LFB 14-31 was also injected intraperitoneally (PBI), 500 μg/ml. Saline only was injected in the control mice (50 μl) (K1,K2,K3). The tumor diameter (mean of transversal and longitudinal) were measured with an electronic calipper.

[5] = assay type: physicochemical
Source text: Peptide W3714, with three additional tryptophan residues (a total of five tryptophan residues in the peptide), has decreased activity. […] This has been physically observed during MIC testing procedures when the peptide tended to precipitate at high concentrations.

[6] = at the concentration tested, 4 hours

MIC E. coli ([1]; ATCC 25922): 70 µg/mL (≈ 28.2 µM) | MIC E. coli ATCC 25922 ([1]; ATCC 25922): 70 µg/mL | MIC E. coli ATCC 25922 ([1]; Table 1, value in brackets): 28 µM | MIC S. aureus ([2]; ATCC 25923): >250 µg/mL | MIC S. aureus ATCC 25923 ([2]; ATCC 25923): 200 µg/mL | MIC S. aureus ATCC 25923 ([2]; Table 1, value in brackets): 80 µM
Compound: CSCC[C@H](NC(=O)[C@H](CCCNC(=N)N)NC(=O)[C@H](Cc1c[nH]c2ccccc12)NC(=O)[C@H](CCC(N)=O)NC(=O)[C@H](Cc1c[nH]c2ccccc12)NC(=O)[C@H](CCCNC(=N)N)NC(=O)[C@H](CCCNC(=N)N)NC(=O)[C@H](CSCNC(C)=O)NC(=O)[C@H](CCCCN)NC(=O)[C@H](Cc1ccccc1)NC(=O)[C@H](Cc1c[nH]c2ccccc12)NC(=O)[C@H](CCC(=O)O)NC(=O)[C@@H]1CCCN1)C(=O)N[C@@H](CCCCN)C(=O)N[C@@H](CCCCN)C(=O)N[C@@H](CC(C)C)C(=O)NCC(=O)N[C@@H](C)C(=O)O [LFB 14-31]
EC50 (human red blood cells): > 404 µM | MethA IC50 ([3]; Table 7, peptide required to kill 50% of MethA cells): no activity | cytotoxic effect on human HL 60 cells [4]: no cytotoxic effect | regression of Meth A tumors (Meth A tumors): induced regression of the Meth A tumors | eradication of Meth A tumors (Meth A tumors; treated intraperitoneally): tumors were also eradicated

Compound: CSCC[C@H](NC(=O)[C@H](CCCNC(=N)N)NC(=O)[C@H](Cc1c[nH]c2ccccc12)NC(=O)[C@H](CCC(N)=O)NC(=O)[C@H](Cc1c[nH]c2ccccc12)NC(=O)[C@H](CCCNC(=N)N)NC(=O)[C@H](CCCNC(=N)N)NC(=O)[C@H](CSCNC(C)=O)NC(=O)[C@H](CCCCN)NC(=O)[C@@H](N)Cc1ccccc1)C(=O)N[C@@H](CCCCN)C(=O)N[C@@H](CCCCN)C(=O)N[C@@H](CC(C)C)C(=O)NCC(=O)N[C@@H](C)C(=O)O [LFB 17-31, H2N-Phe-Lys-Cys-Arg-Arg-Trp-Gln-Trp-Arg-Met-Lys-Lys-Leu-Gly-Ala-COOH]
MIC E. coli ATCC 25922 ([1]; Table 1, value in brackets): 20 µM | MIC E. coli ([1]; Table 3): 50 µg/mL (≈ 24.2 µM) | MIC E. coli ([1]; Table 4): 50 µg/mL (≈ 24.2 µM) | MIC E. coli ([1]; Table 6): 50 µg/mL (≈ 24.2 µM) | MIC S. aureus ATCC 25923 ([2]; Table 1, value in brackets): 50 µM | MIC S. aureus ([2]; Table 3, unit assumed): 100 µg/mL (≈ 48.4 µM) | MIC S. aureus ([2]; Table 4, unit assumed): 100 µg/mL (≈ 48.4 µM) | MIC S. aureus ([2]; Table 6, unit assumed): 100 µg/mL (≈ 48.4 µM) | cytotoxic effect on Meth A cells ([3]; 1 mg/ml, 4 hours incubation): weak effect | cytotoxic effect on Meth A cells ([3]; concentrations up to 1 mg/ml, ½ hour incubation): no significant cytotoxic effect | cytotoxic effect on human HL 60 cells [4, 6]: no cytotoxic effect | regression of Meth A tumors (Meth A tumors): induced regression of the Meth A tumors

Compound: CC[C@H](C)[C@H](NC(=O)[C@H](CO)NC(=O)[C@@H]1CCCN1C(=O)[C@H](C)NC(=O)CNC(=O)[C@H](CC(C)C)NC(=O)[C@H](CCCCN)NC(=O)[C@H](CCCCN)NC(=O)[C@H](CCSC)NC(=O)[C@H](CCCNC(=N)N)NC(=O)[C@H](Cc1c[nH]c2ccccc12)NC(=O)[C@H](CCC(N)=O)NC(=O)[C@H](Cc1c[nH]c2ccccc12)NC(=O)[C@H](CCCNC(=N)N)NC(=O)[C@H](CCCNC(=N)N)NC(=O)[C@H](CSCNC(C)=O)NC(=O)[C@H](CCCCN)NC(=O)[C@@H](N)Cc1ccccc1)C(=O)N[C@H](C(=O)N[C@@H](CSCNC(C)=O)C(=O)N[C@H](C(=O)N[C@@H](CCCNC(=N)N)C(=O)N[C@@H](CCCNC(=N)N)C(=O)N[C@@H](C)C(=O)N[C@@H](Cc1ccccc1)C(=O)O)C(C)C)[C@@H](C)O [LFB (17-41), reference compound]
MIC E. coli ATCC 25922 ([1]; Table 1): 30 µg/mL | MIC S. aureus ATCC 25923 ([2]; Table 1): 30 µg/mL | cytotoxic effect on human HL 60 cells [4, 6]: weak concentration dependant cytotoxic effect

MIC E. coli ([1]; ATCC 25922): 20 µg/mL | MIC E. coli ([1]; Table 6): 20 µg/mL | MIC S. aureus ([2]; ATCC 25923): 20 µg/mL | MIC S. aureus ([2]; Table 6, unit assumed): 20 µg/mL | solubility in aqueous solutions [5]: less soluble in aquous solutions
Compound: H-FKWRRWWWRMKKLWA-OH [LFB W3, 7, 14, H2N-Phe-Lys-Trp-Arg-Arg-Trp-Trp-Trp-Arg-Met-Lys-Lys-Leu-Trp-Ala-COOH]
% Hemolysis 10 μg/ml (human red blood cells; 10): 4.02% | % Hemolysis 100 μg/ml (human red blood cells; 100): 66.1%

Reference: patent US20030022821A1, “Bioactive peptides” (priority 1998, published 2003)
